# Assay results taken from patent publication US20260273131A1, “Cell graft delivered in a delivery system and use thereof in regenerative medicine” (China Medical University, priority 2022, published 2026).
# “And” between values parts separate entries of the source, which are not always exact repeats. Identical values can stand only once. Where no end group is shown, it is not given here.
# Experiments:
# hMSCs [1] = assay: Fluorescent peptide binding to hMSCs (confocal microscopy, imaging flow cytometry); type: cell-based, human; conditions: for binding to hMSCs: fluorescent peptide 0, 2.5, 10, 40 μM, 37° C.; for percentage of cells surrounded by FITC-conjugated BiFP (imaging flow cytometry): increasing concentration from 2.5 to 40 μM
# Procedure: FIG. 2a and FIG. 2b show the results of the analysis of hMSCs binding to BiFP. The hMSCs were labeled with Hochest 33258, and incubated with FITC-labeled BiFP for 1 h, followed by imaging flow cytometry on an Amnis Imaging Cytometer (left). Bar=10 μm. Quantification of the percentage of BiFP-bound hMSCs (right).
# The FITC-labeled BiFP or rhodamine-labeled collagen XII-targeting peptide (Col12-TP) are chemically synthesized by Biomertech (USA) or ABI (USA) to identify peptide binding by confocal microscopic observation. Briefly, for FITC-BiFP or rhodamine-Col12-TP treatment, 1×10^6 hMSCs incubated with 1 μM DilC18 in 37° C. for 10 min and then incubated in final 200 μl PBS with fluorescent peptide at 0, 2.5, 10, 40 μM in 37° C. for 30 min with gently mixing every 10 min. Cells are counterstained with mounting solution containing DAPI. Peptide fluorescence was taken using an ImageXpress Micro Confocal High Content Imaging system (Molecular Devices, Sunnyvale, CA, USA).
# [2] = tested on: chondrocyte line hiP cells; assay: Col12-TP binding to chondrocyte line hiP cells; type: cell-based
# rat OA knee joints = assay: Rat papain/cysteine OA model, histology and modified Mankin score 8 weeks post-transplantation; type: in vivo
# Procedure: (§1) FIG. 4a and FIG. 4b show the FITC-fluorescence-labeled BiFP without or with blocking peptide (FIG. 4a) and the DilC18-fluorescence-labeled rat MSCs (rMSCs) without or with delivery in BiFP (BiFP+rMSCs) (FIG. 4b) are intra-articularly injected into rat OA knee joints pre-established with papain/cysteine, respectively. The whole joint capsules are removed at 24 h post-injection, and articular surfaces of the distal femur are observed under a two-photon microscope. Representative images of second harmonic generation (SHG) signals in collagen and fluorescent signals of BiFP (FIG. 4a) and rMSCs (FIG. 4b) are shown (left). Quantification of overall fluorescence areas (right). FIG. 4c and FIG. 4d show the representative images of Hematoxylin and eosin (H&E) staining (FIG. 4c), and safranin-O/fast green staining (FIG. 4d) of distal femurs of sham-control or OA knee joints collected 8 weeks post-transplantation without or with BiFP, rMSCs, and rMSCs delivered in BiFP (BiFP+rMSCs). […] Bar=50 μm. The data are shown as mean±SD. * p<0.05, ** p<0.01 and **** p<0.0001 as determined by Student's t test (2 groups) or one-way ANOVA (≥3 groups).
# Furthermore, after incubation with BiFP, MSCs are immediately injected into OA joints in a rat model, and the joints are subjected to histological examination 8 weeks post-transplantation.
# [3] = Particle size distribution by dynamic light scattering (DLS); type: physicochemical; conditions: 0.2 mg/ml in PBS at 25° C.
# Procedure: (§2) The triple helix structure of BiFP, collagen, or denatured collagen peptides was measured at 0.2 mg/ml.
# (§3) In the present invention, a bifunctional peptide (BiFP) is synthesized to prevent complicated chemical steps and improve efficiency. A 42-residue peptide (BiFP) with a sequence where GPOGPOGPOGPOGFOGERGPOGPOGPOGPODLQYWYPIWDTH, O is hydroxyproline, was prepared in PBS, pH 7.4 at 25° C. by Biomedical Translation Research Center (Taiwan). The triple helix structure of BiFP, collagen, or denatured collagen peptides was measured at 0.2 mg/ml, respectively. The particle size distribution of 0.2 mg/ml BiFP in PBS at 25° C. was examined by dynamic light scattering (DLS). […] Size was evaluated using dynamic light scattering: Malvern ZS90 zetasizer (Malvern Instruments Corp, Malvern, UK).
# [4] = Circular dichroism (CD) spectroscopy of secondary structure; type: physicochemical; conditions: 0.2 mg/ml; PBS, pH 7.4
# Procedure: as §2, §3
# hMSCs [5] = assay: hMSC viability, Calcein-AM / ethidium homodimer staining; type: cell-based, human; conditions: compared to Col12-TP; 0, 2.5, 10, 40 μM
# Procedure: (§4) The hMSCs are incubated with Col12-TP or BiFP peptide for 1 h, and stained with Calcein-AM (green) and ethidium homodimer (magenta), followed by confocal microscopic observation (left). Bar=50 μm. The quantification of viable cell percentages (right). […] The hMSCs are stained with 1,9 dimethylmethlyene blue (DMB) dye and analyzed at OD 525 nm. Results are normalized by PicoGreen dsDNA quantitation. The data are shown as mean±SD. * p<0.05, ** p<0.01, *** p<0.001 and **** p<0.0001 as determined by Student's t test (2 groups) or the ANOVA (≥3 groups).
# For BiFP or Col12-TP treatment, 1×10^6 hMSCs incubated in final 200 μl PBS with peptide at 0, 2.5, 10, 40 μM in 37° C. for 30 mins with gently mixing every 10 min. Cells are stained with Calcein-AM (ThermoFisher) for live hMSCs and ethidium homodimer (Life Technologies) for dead hMSCs, respectively. Labeled hMSCs are visualized with ImageXpress Micro Confocal High Content Imaging system (Molecular Devices, Sunnyvale, CA, USA). Three independent images each group are counted live hMSCs and quantified.
# hMSCs [6] = assay: WST-1 proliferation assay of peptide-bound hMSCs; type: cell-based, human; conditions: compared to Col12-TP
# hMSCs [7] = assay: Real-time RT-PCR of chondrogenic genes in peptide-bound hMSCs; type: cell-based, human; conditions: compared to Col12-TP; at 1 week
# hMSCs [8] = assay: sGAG production in peptide-bound hMSCs (DMB dye); type: cell-based, human; conditions: compared to Col12-TP; at 2 weeks
# Procedure: as §4
# OA cartilage = assay: OA-specific targeting of labeled BiFP, two-photon microscopy of rat OA joints; type: in vivo; conditions: intra-articular injection, rat OA joint, 24 h post-injection
# Procedure: as §1
# Since BiFP can home to OA cartilage and the chondrogenesis-inducing ability of integrin α2β1 is likely to induce MSCs to undergo chondrogenesis, the BiFP is applied in the delivery of human MSCs to the OA cartilage surface for OA regenerative medicine.
# [9] = tested on: intervertebral disc (IVD); assay: Rat intervertebral disc damage model induced by 20 G needle puncture; type: in vivo; conditions: rat tail
# Excerpt: FIG. 7a is the schematic flowchart of the experimental design for intervertebral disc (IVD) regeneration by PBS, BiFP, EGFP-expressing hMSCs without or with delivery in BiFP (BiFP+hMSCs) in the rat intervertebral disc damage model induced by 20 G needle puncture. The rats were sacrificed at the indicated time point. The rat tail tissues were subjected to X-Ray, T2-weighted MRI, Hematoxylin and eosin (H&E), Safranin O/fast green stain, immunohistochemistry and immunofluorescence analysis. […] FIG. 7d and FIG. 7e show the representative images of H&E staining and safranin-O/fast green staining of NP tissues, respectively. […] Positive signal is visualized as brown color (DAB). […] Cell nuclei were counterstained with 4′, 6-diamidino-2-phenylindole (DAPI). Bar=50 μm. […] X-ray, T2-weighted MRI and histological, histochemical and immunofluorescence analyses reveal the successful induction of IVD damage when compared PBS group with sham control group (FIG. 7b-7e).
# corneal epithelium = assay: Rat corneal epithelial injury model induced by n-heptanol; type: in vivo; conditions: one eye drop (20 μl); up to 2 weeks after injury
# Procedure: FIG. 8a is the schematic flowchart of the experimental design for corneal epithelium regeneration by EGFP-expressing hMSCs without or with delivery in BiFP (BiFP+hMSCs) in the rat corneal epithelium damage model. […] Representative fluorescein-stained cornea images are shown at indicated time points (left). Quantification of the percentage of healed area was calculated using ImageJ Fiji software (right). * p<0.05, ** p<0.01 and *** p<0.001 as determined by One Way ANOVA. […] Bar=50 μm. […] Positive signal is visualized as brown color (DAB) and NC is negative control. Bar=50 μm. To further confirm the utility of BiFP as a cell carrier and expand the application of BiFP-delivered MSCs in corneal epithelial defect regeneration, a rat model of severe and corneal epithelial injury induced by repeated n-heptanol administration was utilized.
binding to hMSCs (hMSCs [1]),particle size (main size) by dynamic light scattering [3],conformation in solution by CD spectroscopy [4],Substance,binding to collagen XII-expressing hiP cells [2],"histology (H&E, safranin-O) of OA knee joints (rat OA knee joints)",percentage of cells surrounded by FITC-conjugated BiFP (imaging flow cytometry) (hMSCs [1]),cell viability of hMSCs (hMSCs [5]),cell proliferation of hMSCs (hMSCs [6]),"expression of chondrogenic genes sox9, col2a1 and aggrecan (hMSCs [7])",synthesis of glycosaminoglycan (hMSCs [8]),fluorescent signal (red dots) in OA cartilage (OA cartilage),"intervertebral disc regeneration / damage (T2 MRI, safranin-O) [9]",corneal epithelial defect (fluorescein staining) (corneal epithelium)
cannot bind to hMSCs,,,Col12-TP: collagen XII-targeting peptide of the applicant's previous application TW202128730 (DLQYWYPIWDTH; also: rhodamine-labeled) [reference compound],can bind to Col12-TP,still exhibited severe OA,,,,,,,,
can also bind to hMSCs,,,GPOGPOGPOGPOGVMGFOGPOGPOGPOGPODLQYWYPIWDTH [BiFP containing a GVMGFO sequence],,,increase in the percentage of cells surrounded by FITC-conjugated BiFP,,,,,,,

Substance,binding to hMSCs (hMSCs [1]),particle size (main size) by dynamic light scattering [3],conformation in solution by CD spectroscopy [4],binding to collagen XII-expressing hiP cells [2],"histology (H&E, safranin-O) of OA knee joints (rat OA knee joints)",percentage of cells surrounded by FITC-conjugated BiFP (imaging flow cytometry) (hMSCs [1]),cell viability of hMSCs (hMSCs [5]),cell proliferation of hMSCs (hMSCs [6]),"expression of chondrogenic genes sox9, col2a1 and aggrecan (hMSCs [7])",synthesis of glycosaminoglycan (hMSCs [8]),fluorescent signal (red dots) in OA cartilage (OA cartilage),"intervertebral disc regeneration / damage (T2 MRI, safranin-O) [9]",corneal epithelial defect (fluorescein staining) (corneal epithelium)
GPOGPOGPOGPOGFOGERGPOGPOGPOGPODLQYWYPIWDTH [BiFP],can bind to hMSCs in a dose-dependent manner,~ 1.914 nm and 1.914 nm,stable triple-helical conformation,,still exhibited severe OA,increase in the percentage of cells surrounded by FITC-conjugated BiFP,increase cell viability,increase,increased expression of chondrogenic genes,enhance synthesis of glycosaminoglycan,apparent red dots are observed,still exhibited severe IVD damage,remained markedly defective even 2 weeks after injury
